Laboratory results reported in ChEMBL document CHEMBL1135887, “Substituted pentacyclic carbazolones as novel muscarinic allosteric agents: synthesis and structure-affinity and cooperativity relationships” (J Med Chem, 2002).

What was measured:
[1] = biological target: Muscarinic acetylcholine receptor M3 (Homo sapiens) (UniProt P20309); assay: Subtype selectivity and the cooperativity with N-methyl Scopolamine (NMS) at muscarinic acetylcholine receptor M3; Activity range is 0.2-0.8
[2] = biological target: T1, Muscarinic acetylcholine receptor M1 (Homo sapiens) (UniProt P11229); assay: Logarithm of affinity (log 1/M) at the free muscarinic acetylcholine receptor M1 by using semiquantitative equilibrium and off-rate assay
T1 sequence (whole entry): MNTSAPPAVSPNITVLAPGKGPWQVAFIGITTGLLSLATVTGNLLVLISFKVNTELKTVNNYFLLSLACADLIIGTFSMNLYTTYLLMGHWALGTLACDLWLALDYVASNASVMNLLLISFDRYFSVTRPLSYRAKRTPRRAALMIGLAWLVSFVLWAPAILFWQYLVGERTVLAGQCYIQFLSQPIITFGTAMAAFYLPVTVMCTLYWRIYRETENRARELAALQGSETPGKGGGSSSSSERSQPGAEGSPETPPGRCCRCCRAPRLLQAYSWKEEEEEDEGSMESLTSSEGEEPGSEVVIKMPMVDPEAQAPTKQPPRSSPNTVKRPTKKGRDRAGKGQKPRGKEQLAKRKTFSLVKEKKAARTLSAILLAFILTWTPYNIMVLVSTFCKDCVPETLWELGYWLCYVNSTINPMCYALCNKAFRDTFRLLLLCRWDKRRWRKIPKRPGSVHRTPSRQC

[3] = biological target: Muscarinic acetylcholine receptor M3 (Homo sapiens) (UniProt P20309); assay: Logarithm of affinity (log 1/M) at the muscarinic acetylcholine receptor M3 by using semiquantitative equilibrium and off-rate assay
[4] = biological target: T2, Muscarinic acetylcholine receptor M4 (Homo sapiens) (UniProt P08173); assay: Logarithm of affinity (log 1/M) at the muscarinic acetylcholine receptor M4 by using semiquantitative equilibrium and off-rate assay
T2 sequence (whole entry): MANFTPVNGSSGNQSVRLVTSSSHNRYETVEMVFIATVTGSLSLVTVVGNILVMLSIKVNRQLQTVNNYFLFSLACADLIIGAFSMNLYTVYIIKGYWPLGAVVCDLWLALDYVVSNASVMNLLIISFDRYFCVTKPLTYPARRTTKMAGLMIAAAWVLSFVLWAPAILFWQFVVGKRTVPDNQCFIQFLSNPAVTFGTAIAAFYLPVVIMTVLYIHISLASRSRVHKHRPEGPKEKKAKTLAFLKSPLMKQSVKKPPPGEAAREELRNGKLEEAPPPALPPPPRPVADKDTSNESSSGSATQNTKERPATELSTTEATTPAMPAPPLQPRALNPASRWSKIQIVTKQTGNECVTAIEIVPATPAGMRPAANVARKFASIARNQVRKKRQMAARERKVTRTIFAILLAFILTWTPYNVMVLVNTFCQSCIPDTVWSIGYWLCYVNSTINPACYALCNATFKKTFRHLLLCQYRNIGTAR

[5] = biological target: Muscarinic acetylcholine receptor M3 (Homo sapiens) (UniProt P20309); assay: Logarithm of affinity (log 1/M) at the (N-methyl Scopolamine) NMS-liganded muscarinic acetylcholine receptor M3 by using semiquantitative equilibrium and off-rate assay
[6] = biological target: T3, Muscarinic acetylcholine receptor M2 (Homo sapiens) (UniProt P08172); assay: Logarithm of affinity (log 1/M) at the (N-methyl Scopolamine) NMS-liganded muscarinic acetylcholine receptor M2 by using semiquantitative equilibrium and off-rate assay
T3 sequence (whole entry): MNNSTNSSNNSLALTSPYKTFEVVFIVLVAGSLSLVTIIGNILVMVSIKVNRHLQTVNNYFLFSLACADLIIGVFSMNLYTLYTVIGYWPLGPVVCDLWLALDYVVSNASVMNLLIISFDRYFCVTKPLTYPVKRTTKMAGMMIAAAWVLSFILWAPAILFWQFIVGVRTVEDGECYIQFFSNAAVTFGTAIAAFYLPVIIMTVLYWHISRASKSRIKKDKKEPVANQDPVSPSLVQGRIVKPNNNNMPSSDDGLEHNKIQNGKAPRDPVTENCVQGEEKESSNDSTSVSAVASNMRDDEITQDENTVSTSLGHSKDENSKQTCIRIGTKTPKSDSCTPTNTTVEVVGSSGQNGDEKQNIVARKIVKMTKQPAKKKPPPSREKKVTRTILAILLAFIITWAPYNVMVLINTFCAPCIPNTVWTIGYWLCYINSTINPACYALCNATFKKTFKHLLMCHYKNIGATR

[7] = biological target: T1, Muscarinic acetylcholine receptor M1 (Homo sapiens); assay: Logarithm of affinity (log 1/M) at the (N-methyl Scopolamine) NMS-liganded muscarinic acetylcholine receptor M1 by using semiquantitative equilibrium and off-rate assay
[8] = biological target: T1, Muscarinic acetylcholine receptor M1 (Homo sapiens); assay: Subtype selectivity and the cooperativity with N-methyl Scopolamine (NMS) at Muscarinic acetylcholine receptor M1
[9] = biological target: T3, Muscarinic acetylcholine receptor M2 (Homo sapiens); assay: Subtype selectivity and the cooperativity with N-methyl Scopolamine (NMS) at muscarinic M2 receptor; Activity range is 0.81-1.19
[10] = biological target: T3, Muscarinic acetylcholine receptor M2 (Homo sapiens); assay: Logarithm of affinity (log 1/M) at the muscarinic acetylcholine receptor M2 by using semiquantitative equilibrium and off-rate assay
[11] = biological target: T2, Muscarinic acetylcholine receptor M4 (Homo sapiens); assay: Subtype selectivity and the cooperativity with N-methyl Scopolamine (NMS) at Muscarinic acetylcholine receptor M4; Activity range is 0.2-0.8
[12] = biological target: T2, Muscarinic acetylcholine receptor M4 (Homo sapiens); assay: Logarithm of affinity (log 1/M) at the (N-methyl Scopolamine) NMS-liganded muscarinic acetylcholine receptor M4 by using semiquantitative equilibrium and off-rate assay
[13] = biological target: T3, Muscarinic acetylcholine receptor M2 (Homo sapiens); assay: Subtype selectivity and the cooperativity with N-methyl Scopolamine (NMS) at Muscarinic acetylcholine receptor M2
[14] = biological target: Muscarinic acetylcholine receptor M3 (Homo sapiens) (UniProt P20309); assay: Subtype selectivity and the cooperativity with N-methyl Scopolamine (NMS) at Muscarinic acetylcholine receptor M3; Activity range is 1.2-3
[15] = biological target: T1, Muscarinic acetylcholine receptor M1 (Homo sapiens); assay: Subtype selectivity and the cooperativity with N-methyl Scopolamine (NMS) at Muscarinic acetylcholine receptor M1; Activity range is 1.2-3
[16] = biological target: T2, Muscarinic acetylcholine receptor M4 (Homo sapiens); assay: Subtype selectivity and the cooperativity with N-methyl Scopolamine (NMS) at Muscarinic acetylcholine receptor M4
[17] = biological target: Muscarinic acetylcholine receptor M3 (Homo sapiens) (UniProt P20309); assay: Subtype selectivity and the cooperativity with N-methyl Scopolamine (NMS) at Muscarinic acetylcholine receptor M3; […]
[18] = biological target: T1, Muscarinic acetylcholine receptor M1 (Homo sapiens); assay: Subtype selectivity and the cooperativity with N-methyl Scopolamine (NMS) at Muscarinic acetylcholine receptor M1; Activity range is 0.2-0.8
[19] = biological target: T3, Muscarinic acetylcholine receptor M2 (Homo sapiens); assay: Subtype selectivity and the cooperativity with N-methyl Scopolamine (NMS) at Muscarinic acetylcholine receptor M2; Activity range is 1.2-3
[20] = biological target: T2, Muscarinic acetylcholine receptor M4 (Homo sapiens); assay: Subtype selectivity and the cooperativity with N-methyl Scopolamine (NMS) at Muscarinic acetylcholine receptor M4; Activity range is 1.2-3
[21] = biological target: T3, Muscarinic acetylcholine receptor M2 (Homo sapiens); assay: Subtype selectivity and the cooperativity with N-methyl Scopolamine (NMS) at Muscarinic acetylcholine receptor M2,activity range is 1.2-3.
[22] = biological target: T2, Muscarinic acetylcholine receptor M4 (Homo sapiens); assay: Subtype selectivity and the cooperativity with N-methyl Scopolamine (NMS) at Muscarinic acetylcholine receptor M4; activity range is 0.2-0.8.
[23] = biological target: Muscarinic acetylcholine receptor M3 (Homo sapiens) (UniProt P20309); assay: Subtype selectivity and the cooperativity with N-methyl Scopolamine (NMS) at Muscarinic acetylcholine receptor M3; activity ranges is 0.2-0.8.
[24] = biological target: T1, Muscarinic acetylcholine receptor M1 (Homo sapiens); assay: Subtype selectivity and the cooperativity with N-methyl Scopolamine (NMS) at Muscarinic acetylcholine receptor M1,activity range is 0.2-0.8.

Chain of Muscarinic acetylcholine receptor M3 (Homo sapiens) (P20309 whole entry, looked up): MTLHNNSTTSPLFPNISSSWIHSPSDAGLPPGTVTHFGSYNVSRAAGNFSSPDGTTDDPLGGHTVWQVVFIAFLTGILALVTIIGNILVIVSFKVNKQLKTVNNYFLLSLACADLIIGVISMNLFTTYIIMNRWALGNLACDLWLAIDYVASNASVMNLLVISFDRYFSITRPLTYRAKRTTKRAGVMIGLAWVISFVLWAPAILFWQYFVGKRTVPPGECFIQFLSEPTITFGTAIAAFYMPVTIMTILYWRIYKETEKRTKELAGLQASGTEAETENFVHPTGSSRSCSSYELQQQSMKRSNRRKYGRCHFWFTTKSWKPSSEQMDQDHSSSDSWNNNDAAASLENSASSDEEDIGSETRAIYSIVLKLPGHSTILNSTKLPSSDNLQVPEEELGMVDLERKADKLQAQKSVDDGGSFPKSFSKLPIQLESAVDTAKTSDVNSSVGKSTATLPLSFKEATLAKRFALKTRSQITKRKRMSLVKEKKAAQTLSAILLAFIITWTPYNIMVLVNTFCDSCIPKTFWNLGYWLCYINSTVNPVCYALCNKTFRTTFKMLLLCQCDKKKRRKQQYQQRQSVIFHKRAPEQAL

Log 1/M [2]	Log 1/M [3]	Log 1/M [4]	Log 1/M [5]	Log 1/M [6]	Log 1/M [7]	Log 1/M [10]	Log 1/M [12]	SMILES	other results
6.32	5.64	5.55	5.09	6.43	5.62	6.44	6	COC(=O)c1ccc2c(c1)c1c3c(cc4c1n2C(=O)CC4)CNCC3	Cooperativity [1]: 0.8; Cooperativity [8]: < 0.2; Cooperativity [9]: 1.19; Cooperativity [11]: 0.8
6.19	5.19	5.9	5.53	6.97	6.44	6.28	6.57	COc1cc2c3c4c(cc5c3n(c2cc1OC)C(=O)CC5)CCNC4	Cooperativity [13]: > 3; Cooperativity [14]: 3; Cooperativity [15]: 3; Cooperativity [16]: > 3
6.05	5.2	4.8	5.15	6.47	5.81	6.15	6.05	COc1cc2c3c4c(cc5c3n(c2cc1OC)C(=O)CC5)CNCC4	Cooperativity [17]: 1.19; Cooperativity [18]: 0.8; Cooperativity [19]: 3; Cooperativity [20]: 3
6.06	5.61	5.29	5.06	6.31	5.99	6.18	5.73	O=C1CCc2cc3c(c4c5cc6c(cc5n1c24)OCO6)CCNC3	Cooperativity [21]: 3; Cooperativity [22]: 0.8; Cooperativity [23]: 0.8; Cooperativity [24]: 0.8
